Values quoted from earlier work as cited in patent US20240033215A1 (AMOS PHARM, priority 2022, published 2024).
≈ marks a conversion by molar mass, not a printed value. Where two headings read alike, the source gives them in different places.

For CC(C)Cc1ccc([C@H](C)C(=O)O)cc1 [Dexibuprofen], the solubility (at acidic pH) is given as 0.078 mg/mL (≈ 0.378 mM) and the solubility (at alkaline pH) is given as 291 mg/mL (≈ 1410 mM).
